According to patent US6608086B2, “Dihydropyridines and new uses thereof” (Synaptic Pharmaceutical Corporation, priority 1993, dated 2003):
Where two headings read alike, the source gives them in different places.

Assays:
[1] = target: T1, α1B Human Adrenergic Receptor (Homo sapiens, UniProt P35368); experiment: Radioligand binding, [3H]prazosin, cloned human α1B adrenergic receptor
T1 construct: The entire coding region of α1B (1563 bp); expressed in transfected cells
T1 sequence (P35368 1-520): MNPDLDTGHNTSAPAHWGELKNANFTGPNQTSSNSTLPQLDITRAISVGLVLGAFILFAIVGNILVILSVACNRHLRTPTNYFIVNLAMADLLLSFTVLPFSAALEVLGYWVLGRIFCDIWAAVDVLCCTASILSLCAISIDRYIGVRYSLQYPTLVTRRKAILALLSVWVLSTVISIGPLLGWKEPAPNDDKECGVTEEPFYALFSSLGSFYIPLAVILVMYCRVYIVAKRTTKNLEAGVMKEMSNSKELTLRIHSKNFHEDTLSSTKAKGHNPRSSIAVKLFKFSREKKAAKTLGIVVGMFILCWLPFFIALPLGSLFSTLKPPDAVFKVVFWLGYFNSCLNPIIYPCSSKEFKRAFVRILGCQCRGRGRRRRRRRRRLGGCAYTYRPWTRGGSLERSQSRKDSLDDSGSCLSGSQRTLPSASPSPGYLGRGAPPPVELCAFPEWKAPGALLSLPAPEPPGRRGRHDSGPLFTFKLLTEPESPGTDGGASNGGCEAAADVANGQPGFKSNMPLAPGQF
Procedure, shortened: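 Membranes from stably transfected LM(tk−) cells, resuspended in 50 mM Tris-HCl, 1 mM MgCl2, 0.1% ascorbic acid, pH 7.5, were incubated with 0.5 nM [3H]prazosin for 20 min at 37° C. Nonspecific binding defined with 10 μM phentolamine; bound ligand separated by GF/B filtration.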

[2] = cloned human receptor in LM(tk-) cell membranes, SEM and n in lines below, read-out: pKi alpha-1 1b (converted)
[3] = cloned human α1B receptor, LM(tk−) cell membranes
[4] = cloned human α1B receptor, LM(tk−) cell membranes, read-out: pKi alpha-1 1b (converted)
[5] = PKi alpha-1 1b, cloned human receptor, LM(tk-) cell membranes, mean
[6] = cloned human receptor, LM(tk-) cell membranes, mean, read-out: PKi alpha-1 1b (converted)
[7] = cloned human α1B receptor, LM(tk-) cell membranes, read-out: PKi alpha-1 1b (converted)

**Q.** For COC(=O)C1=C(C)NC(C)=C(C(=O)NCCCN2CCC(c3ccccc3)CC2)C1c1ccc(Cl)c([N+](=O)[O-])c1 (stereo not shown) [Example 17, 4-(4-Chloro-3-nitrophenyl)-1,4-dihydro-3-methoxycarbonyl-2,6-dimethyl-5-(N-(3-(4-phenylpiperidin-1-yl)propyl)carboxamido)pyridine], which Ki [1, 2] is on record?
**A.** Its Ki is 41.7 nM.

**Q.** And the melting point?
**A.** The melting point was 191 to 192 °C.

**Q.** With COC(=O)C1=C(C)NC(C)=C(C(=O)NCCCN2CCC(c3ccccc3)CC2)C1c1cccc([N+](=O)[O-])c1 (stereo not shown) [Example 30, 1,4-Dihydro-3-methoxycarbonyl-2,6-dimethyl-4-(3-nitrophenyl)-5-(N-(3-(4-phenylpiperidin-1-yl)propyl)carboxamido)pyridine] as the compound, how does the Ki [1, 2] read?
**A.** The Ki was 53.7 nM.

**Q.** And the melting point?
**A.** The melting point was 78 to 80 °C.

**Q.** With COC(=O)C1=C(C)NC(C)=C(C(=O)NCCCN2CCC(c3ccccc3)CC2)C1c1ccc(C)cc1 (stereo not shown) [Example 31, 1,4-Dihydro-3-methoxycarbonyl-2,6-dimethyl-4-(4-methylphenyl)-5-(N-(3-(4-phenylpiperidin-1-yl)propyl)carboxamido)pyridine] as the compound, how does the Ki [1, 2] read?
**A.** The Ki was 20.4 nM.

**Q.** What about the melting point of the same compound?
**A.** The melting point was 139 to 139.5 °C.

**Q.** For CC1=C(C(=O)NCCCN2CCC(c3ccccc3)(c3ccccc3)CC2)C(c2ccc([N+](=O)[O-])cc2)C(C(=O)N(C)C)=C(C)N1 (stereo not shown) [Example 39, 1,4-Dihydro-2,6-dimethyl-3-(N,N-dimethyl) carboxamido-4-(4-nitrophenyl)-5-{N-[3-(4,4-diphenylpiperidin-1-yl)propyl]}carboxamidopyridine], which “pKi alpha-1 1b” value ([1]; cloned human receptor in LM(tk-) cell membranes, SEM and n in lines below) is on record?
**A.** The value was 5.93.

**Q.** What about the melting point of the same compound?
**A.** The melting point was 135 °C.

**Q.** What does the source list for CC1=C(C(N)=O)C(c2ccc([N+](=O)[O-])cc2)C(C(=O)NCCCN2CCC(c3ccccc3)CC2)=C(C)N1 (stereo not shown) [Example 60, 5-Carboxamido-1,4-dihydro-2,6-dimethyl-4-(4-nitrophenyl)-3-{N-[3-(4-phenylpiperidin-1-yl)propyl]}carboxamidopyridine]?
**A.** Ki [1, 2]: 77.6 nM; melting point: 100 to 105 °C

**Q.** What does the source list for CC1=C(C(N)=O)C(c2cccc([N+](=O)[O-])c2)C(C(=O)NCCCN2CCC(c3ccccc3)CC2)=C(C)N1 (stereo not shown) [Example 62]?
**A.** Ki [1, 2]: 316 nM; melting point: 92 to 96 °C

**Q.** Which Ki [1, 2] does the source give for CC1=C(C(=O)NCCCN2CCC(c3ccccc3)CC2)C(c2ccc([N+](=O)[O-])cc2)c2c([nH]c(=O)[nH]c2=O)N1 (stereo not shown) [Example 63, 1,4-Dihydro-6-methyl-4-(4-nitrophenyl)-5-{N-[3-(4-phenylpiperidin-1-yl)propyl]}carboxamido-[2,3, d]uracilylpyridine] here?
**A.** Its Ki is 18.6 nM.

**Q.** And the melting point?
**A.** Its melting point is 202 to 205 °C.

**Q.** Which “pKi alpha-1 1b” value [1, 3] does the source give for CCC1=C(C(N)=O)C(c2ccc([N+](=O)[O-])cc2)C(C(=O)NCCCN2CCC(c3ccccc3)(c3ccccc3)CC2)=C(CC)N1 (stereo not shown) [Example 120, 5-Carboxamido-2,6-diethyl-1,4-dihydro-4-(4-nitrophenyl)-3-{N-[3-(4,4-diphenylpiperidin-1-yl)propyl]} carboxamidopyridine] here?
**A.** Its value is 6.61.

**Q.** Which Ki [1, 4] does the source give for CCC1=C(C(N)=O)C(c2ccc([N+](=O)[O-])cc2)C(C(=O)NCCCN2CCC(c3ccccc3)CC2)=C(CC)N1 (stereo not shown) [Example 121, 5-Carboxamido-2,6-diethyl-1,4-dihydro-4-(4-nitrophenyl)-3-{N-[3-(4-phenylpiperidin-1-yl)propyl]}carboxamidopyridine] here?
**A.** The Ki was 72.4 nM.

**Q.** What about the melting point of the same compound?
**A.** The melting point was 90 to 101 °C.

**Q.** Which “pKi alpha-1 1b” value [1, 3] does the source give for CCC1=C(C(N)=O)C(c2ccc([N+](=O)[O-])cc2)C(C(=O)NC2CCN(CCc3c[nH]c4ccccc34)CC2)=CN1CC (stereo not shown) [Example 122, 5-Carboxamido-1,4-dihydro-3-(N-{1-[2-(3-indolyl)ethyl]piperidin-4-yl}) carboxamido-1,6-diethyl-4-(4-nitrophenyl)pyridine] here?
**A.** Its value is 7.57.

**Q.** Which “pKi alpha-1 1b” value [1, 3] does the source give for CCC1=C(C(N)=O)C(c2ccc([N+](=O)[O-])cc2)C(C(=O)NC2CCN(CCc3c[nH]c4ccccc34)CC2)=CN1CC (stereo not shown) [Example 123, 5-Carboxamido-1,6-diethyl-1,4-dihydro-3-(N-{1-[2-(3-indolyl)ethyl]piperidin-4-yl}) carboxamide-4-(4-nitrophenyl)pyridine] here?
**A.** The value was 8.01.

**Q.** Which Ki [1, 4] does the source give for COc1ccccc1N1CCN(CCCNC(=O)C2=C(C)NC(C)=C(C(N)=O)C2c2ccc([N+](=O)[O-])cc2)CC1 (stereo not shown) [Example 124] here?
**A.** The Ki was 89.1 nM.

**Q.** Which “pKi alpha-1 1b” value [1, 3] does the source give for CCC1=C(C(=O)NC)C(c2ccc([N+](=O)[O-])cc2)C(C(=O)NCCCN2CCC(C#N)(c3ccccc3)CC2)=C(CC)N1 (stereo not shown) [Example 126, 3-{N-[3-(4-Cyano-4-phenylpiperidin-1-yl)propyl]}carboxamido-1,4-dihydro-2,6-diethyl-5-(1-methyl)carboxamido-4-(4-nitrophenyl)pyridine] here?
**A.** Its value is 5.37.

**Q.** Which Ki [1, 5] does the source give for CNC(=O)C1=C(C)NC(C)=C(C(=O)NCCCN2CCC(c3ccccc3)(c3ccccc3)CC2)C1c1ccc2c(c1)OCCO2 (stereo not shown) [Example 163] here?
**A.** The Ki was 1020 nM.

**Q.** And the melting point?
**A.** The melting point was 115 to 116 °C.

**Q.** For CCC1=C(C(N)=O)C(c2ccc([N+](=O)[O-])cc2)C(C(=O)NCCCN2CCC(C(=O)OC)(c3ccccc3)CC2)=C(CCCCN=[N+]=[N-])N1 (stereo not shown) [Example 165, 2-(4-Azidobutyl)-3-{N-[3-(4-methoxycarbonyl-4-phenylpiperidin-1-yl)propyl]}carboxamido-5-carboxamido-6-ethyl-1,4-dihydro-4-(4-nitrophenyl)pyridine], which Ki [1, 6] is on record?
**A.** The Ki was 575 nM.

**Q.** And the melting point?
**A.** Its melting point is 74 to 77 °C.

**Q.** Which Ki [1, 6] does the source give for CCC1=C(C(N)=O)C(c2ccc([N+](=O)[O-])cc2)C(C(=O)NCCCN2CCC(C(=O)OC)(c3ccccc3)CC2)=C(CCCCN)N1 (stereo not shown) [Example 166, 2-(4-Aminobutyl)-5-carboxamido-6-ethyl-1,4-dihydro-3-{N-[3-(4-methoxycarbonyl-4-phenylpiperidin-1-yl)propyl]}carboxamido-4-(4-nitrophenyl)pyridine] here?
**A.** The Ki was 1320 nM.

**Q.** And the melting point?
**A.** The melting point was 75 to 78 °C.

**Q.** Which Ki [1, 6] does the source give for CCC1=C(C(=O)NC)C(c2ccc([N+](=O)[O-])cc2)C(C(=O)NCCCN2CCC(C(=O)OC)(c3ccccc3)CC2)=C(CC)N1 (stereo not shown) [Example 179, 2,6-Diethyl-1,4-dihydro-3-{N-[3-(4-methoxycarbonyl-4-phenyl-piperidin-1-yl)propyl]}carboxamido-5-(N-methyl)carboxamido-4-(4-nitrophenyl)pyridine] here?
**A.** The Ki was 1070 nM.

**Q.** For COC(=O)C1(c2ccccc2)CCN(CCCNC(=O)C2=C(COCCN=[N+]=[N-])NC(C)=C(C(N)=O)C2c2ccc([N+](=O)[O-])cc2)CC1 (stereo not shown) [Example 183, 2-[(2-Azidoethoxy)methyl]-5-carboxamido-1,4-dihydro-3-{N-[3-(4-methoxycarbonyl-4-phenylpiperidin-1-yl)propyl]}carboxamido-6-methyl-4-(4-nitrophenyl)pyridine], which Ki [1, 6] is on record?
**A.** The Ki was 229 nM.

**Q.** With CC1=C(C(N)=O)C(c2ccc([N+](=O)[O-])cc2)C(C(=O)NCCCN2CCC(C(=O)OCCC#N)(c3ccccc3)CC2)=CN1C (stereo not shown) [Example 209, 5-Carboxamido-3-{N-[3-(4-(2-cyanoethoxycarbonyl)-4-phenylpiperidin-1-yl)propyl]}carboxamido-1,4-dihydro-1,6-dimethyl-4-(4-nitrophenyl) pyridine] as the compound, how does the “PKi alpha-1 1b” value ([1]; cloned human receptor, LM(tk-) cell membranes, mean) read?
**A.** The value was 5.44.

**Q.** Which Ki [1, 6] does the source give for CCC1=C(C(N)=O)C(c2ccc([N+](=O)[O-])cc2)C(C(=O)NCCCN2CCC(C(=O)OC)(c3ccccc3)CC2)=C(COCCN)N1 (stereo not shown) [Example 234, 2-((2-Aminoethyl)oxy)methyl-5-carboxamido-6-ethyl-1,4-dihydro-3-(N-(3-(4-methoxycarbonyl-4-phenylpiperidin-1-yl)propyl)) carboxamido-4-(4-nitro)phenylpyridine] here?
**A.** The Ki was 1290 nM.

**Q.** Which Ki [1, 5] does the source give for CC(=O)C1=C(C)NC(COCCN)=C(C(=O)NCCCN2CCC(c3ccccc3)(c3ccccc3)CC2)C1c1ccc([N+](=O)[O-])cc1 (stereo not shown) [Example 237, 5-Acetyl-2-((2-aminoethyl)oxy)methyl-1,4-dihydro-6-methyl-4-(4-nitro)phenyl 3-(N-(3-(4,4-diphenylpiperidin-1-yl)propyl)) carboxamidopyridine] here?
**A.** Its Ki is 200 nM.

**Q.** With CCOC(=O)C1(c2ccccc2)CCN(CCCNC(=O)C2=C(COCC(F)(F)F)NC(C)=C(C(N)=O)C2c2ccc([N+](=O)[O-])cc2)CC1 (stereo not shown) [Example 243, 5-Carboxamido-3-(N-(3-(4-ethoxycarbonyl-4-phenylpiperidin-1yl)propyl))carboxamido-2-((2,2,2-trifluoroethyl)oxy)methyl-1,4dihydro-6-methyl-4-(4-nitro)phenylpyridine] as the compound, how does the Ki [1, 7] read?
**A.** The Ki was 759 nM.

**Q.** Which Ki [1, 7] does the source give for COC(=O)C1(c2ccccc2)CCN(CCCNC(=O)C2=C(COCCN)NC(C)=C(C(C)=O)C2c2ccc(F)cc2)CC1 (stereo not shown) [Example 245, 5-Acetyl-2-((2-aminoethyl)oxy)methyl-4-(4-fluoro)phenyl-1,4-dihydro-3-(N-3-(4-methoxycarbonyl-4-phenylpiperidin-1-yl)propyl)carboxamido-6-methylpyridine] here?
**A.** The Ki was 355 nM.
